Experiments:
human TLR8 = target: T1, human TLR8 (Homo sapiens, UniProt Q9NR97); experiment: HEK293 hTLR8 NFKB-SEAP reporter assay; type: cell-based; details: for EC50: HEK293 stably transfected with hTLR8, 24 h stimulation, aqueous formulations of choline salts (2% glycerol), SEAP readout, read-out: TLR8 ED50
T1 construct: host or cells: HEK293
T1 sequence (Q9NR97 27-1041): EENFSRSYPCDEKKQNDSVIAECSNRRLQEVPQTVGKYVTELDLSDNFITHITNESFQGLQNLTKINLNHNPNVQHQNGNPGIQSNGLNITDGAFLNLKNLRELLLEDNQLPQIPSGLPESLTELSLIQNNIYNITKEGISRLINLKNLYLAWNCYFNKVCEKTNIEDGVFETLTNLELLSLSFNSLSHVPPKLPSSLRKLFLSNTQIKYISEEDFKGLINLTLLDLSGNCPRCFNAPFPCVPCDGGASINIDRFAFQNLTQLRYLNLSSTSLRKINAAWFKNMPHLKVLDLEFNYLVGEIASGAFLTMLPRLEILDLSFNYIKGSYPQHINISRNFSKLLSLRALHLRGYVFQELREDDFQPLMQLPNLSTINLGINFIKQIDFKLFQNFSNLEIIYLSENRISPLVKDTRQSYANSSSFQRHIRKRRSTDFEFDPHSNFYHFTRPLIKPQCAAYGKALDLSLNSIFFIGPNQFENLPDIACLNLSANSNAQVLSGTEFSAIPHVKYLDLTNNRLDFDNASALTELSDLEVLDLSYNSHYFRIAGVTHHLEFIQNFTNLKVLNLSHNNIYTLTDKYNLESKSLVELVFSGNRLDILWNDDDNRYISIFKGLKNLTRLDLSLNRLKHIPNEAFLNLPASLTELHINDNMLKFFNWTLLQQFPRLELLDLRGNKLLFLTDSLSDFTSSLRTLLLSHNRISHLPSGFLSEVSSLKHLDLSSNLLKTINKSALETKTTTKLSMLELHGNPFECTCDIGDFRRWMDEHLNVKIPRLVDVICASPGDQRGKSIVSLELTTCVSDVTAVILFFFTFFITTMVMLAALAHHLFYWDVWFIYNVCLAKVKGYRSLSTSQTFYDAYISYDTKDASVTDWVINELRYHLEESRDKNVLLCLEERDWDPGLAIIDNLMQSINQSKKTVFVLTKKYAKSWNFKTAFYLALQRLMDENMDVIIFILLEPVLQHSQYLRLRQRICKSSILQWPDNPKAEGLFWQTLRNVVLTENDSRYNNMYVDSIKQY
Procedure: (§1) Determination of TLR agonist activity was performed using the HEK293 binding assay.
(§2) This assay measures TLR7 and TLR8 selectivity and potency of the compounds tested. HEK293 cells expressing human TLR7 or TLR8 and NFKB responsive Secreted Embryonic Alkaline Phosphatase (SEAP) reporter gene were obtained from InvitroGen (San Diego, Calif.). These cells were maintained in culture media of Dulbecco's Modified Eagle Medium (DMEM) (Invitrogen, Grand Island, N.Y.), 10% Fetal Bovine Serum (FBS) (Sigma, St. Louis, Mo.) and selection antibiotics (Invitrogen, and Invitrogen). HEK293 stably transfected with human TLR7 (hTLR7) or human TLR8 (hTLR8) were stimulated for 24 h with aqueous formulations of compounds and culture supernatants were analysed for NFKB activation using the colorimetric SEAP detection kit QuantBlue (InvitroGen).
(§3) Choline salts of the compounds were prepared in aqueous solution (2% glycerol) and sonicated to reduce particle size to 120-370 nm.

human TLR7 = target: T2, human TLR7 (Homo sapiens, UniProt Q9NYK1); experiment: HEK293 hTLR7 NFKB-SEAP reporter assay; type: cell-based; details: for EC50: HEK293 stably transfected with hTLR7, 24 h stimulation, aqueous formulations of choline salts (2% glycerol), SEAP readout, read-out: TLR7 ED50; for TLR7/8 ratio: ratio of TLR7 ED50 to TLR8 ED50, HEK293 reporter cells
T2 construct: host or cells: HEK293
T2 sequence (Q9NYK1 27-1049): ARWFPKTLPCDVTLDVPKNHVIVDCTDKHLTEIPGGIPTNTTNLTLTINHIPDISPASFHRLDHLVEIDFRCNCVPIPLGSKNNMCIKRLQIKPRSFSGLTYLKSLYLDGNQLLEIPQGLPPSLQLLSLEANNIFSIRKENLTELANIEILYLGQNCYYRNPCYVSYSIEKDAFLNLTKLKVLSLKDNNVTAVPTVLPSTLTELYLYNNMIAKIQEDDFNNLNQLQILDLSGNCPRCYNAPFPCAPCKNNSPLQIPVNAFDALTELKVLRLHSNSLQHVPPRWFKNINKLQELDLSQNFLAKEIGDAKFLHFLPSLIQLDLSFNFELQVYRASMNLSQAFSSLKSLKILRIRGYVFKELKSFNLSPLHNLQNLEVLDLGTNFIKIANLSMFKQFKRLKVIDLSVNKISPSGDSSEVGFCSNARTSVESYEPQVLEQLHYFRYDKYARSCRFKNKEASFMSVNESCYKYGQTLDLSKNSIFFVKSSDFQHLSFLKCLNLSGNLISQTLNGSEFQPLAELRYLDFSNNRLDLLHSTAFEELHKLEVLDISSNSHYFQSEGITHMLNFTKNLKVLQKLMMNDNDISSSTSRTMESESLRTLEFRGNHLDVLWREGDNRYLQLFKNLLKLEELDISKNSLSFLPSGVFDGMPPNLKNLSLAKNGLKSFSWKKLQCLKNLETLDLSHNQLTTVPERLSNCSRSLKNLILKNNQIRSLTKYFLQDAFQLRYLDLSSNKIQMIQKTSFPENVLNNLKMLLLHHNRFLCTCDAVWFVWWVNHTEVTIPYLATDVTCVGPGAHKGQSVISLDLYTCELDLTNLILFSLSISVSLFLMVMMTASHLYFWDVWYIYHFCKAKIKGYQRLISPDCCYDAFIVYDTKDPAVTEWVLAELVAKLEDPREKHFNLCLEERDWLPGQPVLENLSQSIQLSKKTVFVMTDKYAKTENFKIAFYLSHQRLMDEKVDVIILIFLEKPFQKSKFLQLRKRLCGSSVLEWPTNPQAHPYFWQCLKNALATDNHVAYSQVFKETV
Procedure: as §1, §2, §3

| EC50 (human TLR8) | EC50 (human TLR7) | TLR7/8 ratio (human TLR7) | hTLR8 activity compared with parent core oxoadenine compound (human TLR8; HEK293 hTLR8, result in words) | hTLR7 activity compared with parent core oxoadenine compound (human TLR7; HEK293 hTLR7, result in words) | TLR7/TLR8 selectivity in words (human TLR7; HEK293 hTLR7 vs hTLR8, relative to similar prior art compounds) | Compound |
| --- | --- | --- | --- | --- | --- | --- |
| 530 nM | 340 nM | 0.6 |  |  |  | CCC[C@H](C)Oc1nc(N)c2[nH]c(=O)n(CC3CCN(CCO)CC3)c2n1 |
| 470 nM | 320 nM | 0.7 | slightly more potent | slightly more potent | TLR7 bias | CCCCCCCC/C=C\CCCCCCCC(=O)OC[C@H](COP(=O)(O)OCCN1CCC(Cn2c(=O)[nH]c3c(N)nc(O[C@@H](C)CCC)nc32)CC1)OC(=O)CCCCCCC/C=C\CCCCCCCC [Compound 1] |
| 190 nM | 580 nM | 3.1 |  |  |  | CCCCc1nc2c(N)nc3ccccc3c2n1CCO [reference compound] |
| 26000 nM | 34600 nM | 1.3 |  |  |  | CC/C=C\CC(=O)OC[C@H](COP(=O)(O)OCCn1c(CCCC)nc2c(N)nc3ccccc3c21)OC(=O)C/C=C\CC [reference compound] |

Reference: US20210371440A1, “TLR7 AND / OR TLR8 AGONISTS” (GLAXOSMITHKLINE BIOLOGICALS SA, priority 2018, published 2021)
